Here are results for 5 compounds from patent US8562945B2, “Technetium- and rhenium-bis(heteroaryl) complexes and methods of use thereof” (Molecular Insight Pharmaceuticals, Inc., priority 2008, dated 2013).

The series in a line: Rat tissue distribution of 99mTc complexes of example ligands (Table 6). Type of series: in vivo, Sprague-Dawley Rats. As to conditions: 99mTc complex. As to the method: Rat Tissue Distribution Studies. The distribution and pharmacokinetics of selected ^99mTc-SAAC complexes were evaluated in normal male Sprague Dawley rats (180-200 grams) administered via the tail vein as a bolus injection (approximately 10 μCi/rat) in a constant volume of 0.1 ml. The animals (n=5 per time point) were euthanized by asphyxiation with carbon dioxide at 5, 30, 60, and 120 min post injection. Tissues (blood, heart, lungs, liver, spleen, kidneys, adrenals, stomach, intestines (with contents), testes, skeletal muscle, bone and brain) were dissected, excised, weighed wet, and counted in an automated γ-counter (LKB Model 1282, Wallac Oy, Finland). Tissue time-radioactivity levels expressed as percent injected dose per gram of tissue (% ID/g) was determined.
^99mTc Complexes of various example ligands in Sprague-Dawley Rats.

For the setting “5 min”, `N[C@@H](CCCCN(Cc1nccn1CC(=O)O)Cc1nccn1CC(=O)O)C(=O)O` (stereo in doubt) [Compound 2, 2,2′-(2,2′-(5-amino-5-carboxypentylazanediyl)bis(methylene)bis(1H-imidazole-2,1-diyl))diacetic acid] returned a Blood tissue distribution of 1.33 ± 0.2 % ID/g, a GI tissue distribution of 0.15 ± 0.02 % ID/g, a Kidney tissue distribution of 6.85 ± 1.85 % ID/g and a Liver tissue distribution of 0.52 ± 0.07 % ID/g. In addition, the “Sk. Muscle tissue distribution” value (5 min) was 0.29 ± 0.04 % ID/g. Further, under “30 min”, the Blood tissue distribution is recorded as 1.14 ± 0.23 % ID/g, the GI tissue distribution amounted to 0.44 ± 0.08 % ID/g, the Kidney tissue distribution turned out to be 10.7 ± 2.3 % ID/g and the Liver tissue distribution turned out to be 0.55 ± 0.07 % ID/g. For the same compound, the “Sk. Muscle tissue distribution” value (30 min) was 0.21 ± 0.06 % ID/g. For the same compound, where the note is “60 min”, the Blood tissue distribution is recorded as 0.86 ± 0.17 % ID/g, the GI tissue distribution was determined as 0.76 ± 0.31 % ID/g, the Kidney tissue distribution was found to be 16.8 ± 4.8 % ID/g and the Liver tissue distribution was found to be 0.42 ± 0.08 % ID/g. The “Sk. Muscle tissue distribution” value (60 min) was determined as 0.16 ± 0.03 % ID/g. Where the note is “120 min”, this compound came in with a Blood tissue distribution of 0.72 ± 0.12 % ID/g, a GI tissue distribution of 1.22 ± 0.27 % ID/g, a Kidney tissue distribution of 10.2 ± 2.5 % ID/g and a Liver tissue distribution of 0.39 ± 0.07 % ID/g. Besides, under “120 min”, the “Sk. Muscle tissue distribution” value is on record as 0.14 ± 0.02 % ID/g.
Under “5 min”, `CCOCCn1ccnc1CN(CCCC[C@H](N)C(=O)O)Cc1nccn1CCOCC` (stereo in doubt) [Compound 4, 2-amino-6-(bis((1-(2-ethoxyethyl)-1H-imidazol-2-yl)methyl)amino)hexanoic acid] registered a Blood tissue distribution of 0.83 ± 0.09 % ID/g, a GI tissue distribution of 0.57 ± 0.13 % ID/g, a Kidney tissue distribution of 6.86 ± 0.86 % ID/g and a Liver tissue distribution of 1.61 ± 0.32 % ID/g. Also, the “Sk. Muscle tissue distribution” value (5 min) was 0.13 ± 0.02 % ID/g. Moreover, where the note is “30 min”, the Blood tissue distribution is recorded as 0.09 ± 0.02 % ID/g, the GI tissue distribution came out at 2.33 ± 0.61 % ID/g, the Kidney tissue distribution was 12.13 ± 2.36 % ID/g and the Liver tissue distribution is given as 0.35 ± 0.08 % ID/g. Besides, where the note is “30 min”, the “Sk. Muscle tissue distribution” value was 0.02 ± 0.01 % ID/g. Under “60 min”, this compound came in with a Blood tissue distribution of 0.02 ± 0 % ID/g, a GI tissue distribution of 3.62 ± 0.3 % ID/g, a Kidney tissue distribution of 12.54 ± 1 % ID/g and a Liver tissue distribution of 0.28 ± 0.07 % ID/g. The “Sk. Muscle tissue distribution” value (60 min) worked out at 0.01 ± 0 % ID/g. For the same compound, for the setting “120 min”, the Blood tissue distribution came out at 0.01 ± 0 % ID/g, the GI tissue distribution came to 2.96 ± 0.44 % ID/g, the Kidney tissue distribution was found to be 12.54 ± 0.81 % ID/g and the Liver tissue distribution is listed as 0.14 ± 0.02 % ID/g. Besides, the “Sk. Muscle tissue distribution” value (120 min) is on record as 0.01 ± 0 % ID/g.
Under “5 min”, `COC(Cn1ccnc1CN(CCCC[C@H](N)C(=O)O)Cc1nccn1CC(OC)OC)OC` (stereo in doubt) [Compound 6, 2-amino-6-(bis((1-(2,2-dimethoxyethyl)-1H-imidazol-2-yl)methyl)amino)hexanoic acid] gave a Blood tissue distribution of 1.46 ± 0.21 % ID/g, a GI tissue distribution of 0.34 ± 0.12 % ID/g, a Kidney tissue distribution of 13.82 ± 2.81 % ID/g and a Liver tissue distribution of 1.06 ± 0.34 % ID/g. Further, the “Sk. Muscle tissue distribution” value (5 min) stood at 0.3 ± 0.04 % ID/g. Moreover, where the note is “30 min”, the Blood tissue distribution is recorded as 0.47 ± 0.05 % ID/g, the GI tissue distribution turned out to be 1.05 ± 0.2 % ID/g, the Kidney tissue distribution was 34.1 ± 5.59 % ID/g and the Liver tissue distribution stood at 0.45 ± 0.04 % ID/g. Besides, the “Sk. Muscle tissue distribution” value (30 min) is reported as 0.1 ± 0.01 % ID/g. For the setting “60 min”, this compound returned a Blood tissue distribution of 0.14 ± 0.04 % ID/g, a GI tissue distribution of 1.39 ± 0.24 % ID/g, a Kidney tissue distribution of 40.25 ± 5.17 % ID/g and a Liver tissue distribution of 0.24 ± 0.04 % ID/g. Further, under “60 min”, the “Sk. Muscle tissue distribution” value is given as 0.04 ± 0.01 % ID/g. For the setting “120 min”, this compound displayed a Blood tissue distribution of 0.04 ± 0.01 % ID/g, a GI tissue distribution of 1.21 ± 0.27 % ID/g, a Kidney tissue distribution of 33.18 ± 2.75 % ID/g and a Liver tissue distribution of 0.16 ± 0.02 % ID/g. Moreover, the “Sk. Muscle tissue distribution” value (120 min) stood at 0.01 ± 0 % ID/g.
Under “5 min”, `Cn1ccnc1CN(CCCC[C@H](N)C(=O)O)Cc1nccn1C` [Compound 13, (S)-2-amino-6-(bis((1-methyl-1H-imidazol-2-yl)methyl)amino)hexanoic acid] returned a Blood tissue distribution of 1.18 ± 0.18 % ID/g, a GI tissue distribution of 0.15 ± 0.02 % ID/g, a Kidney tissue distribution of 6.65 ± 2.06 % ID/g and a Liver tissue distribution of 0.8 ± 0.28 % ID/g. The “Sk. Muscle tissue distribution” value (5 min) worked out at 0.22 ± 0.03 % ID/g. For the same compound, for the setting “30 min”, the Blood tissue distribution stood at 0.28 ± 0.03 % ID/g, the GI tissue distribution amounted to 0.45 ± 0.11 % ID/g, the Kidney tissue distribution was found to be 22.2 ± 3.9 % ID/g and the Liver tissue distribution is listed as 1.03 ± 0.21 % ID/g. Moreover, the “Sk. Muscle tissue distribution” value (30 min) worked out at 0.06 ± 0.02 % ID/g. Under “60 min”, this compound showed a Blood tissue distribution of 0.11 ± 0.02 % ID/g, a GI tissue distribution of 0.84 ± 0.1 % ID/g, a Kidney tissue distribution of 25.4 ± 1.7 % ID/g and a Liver tissue distribution of 0.86 ± 0.16 % ID/g. The “Sk. Muscle tissue distribution” value (60 min) was 0.03 ± 0.01 % ID/g. Where the note is “120 min”, this compound displayed a Blood tissue distribution of 0.03 ± 0.01 % ID/g, a GI tissue distribution of 1.12 ± 0.37 % ID/g, a Kidney tissue distribution of 25.5 ± 3.4 % ID/g and a Liver tissue distribution of 0.74 ± 0.14 % ID/g. The “Sk. Muscle tissue distribution” value (120 min) is on record as 0.01 ± 0 % ID/g.
Take `Cn1ccnc1CN(CCCC[C@H](N)C(=O)O)CC(=O)O` [Compound 18, (S)-2-amino-6-((carboxymethyl)((1-methyl-1H-imidazol-2-yl)methyl)amino) hexanoic acid]: under “5 min”, the Blood tissue distribution is 1.03 ± 0.14 % ID/g, the GI tissue distribution is 0.16 ± 0.01 % ID/g, the Kidney tissue distribution was found to be 10.79 ± 1.97 % ID/g and the Liver tissue distribution amounted to 0.95 ± 0.14 % ID/g. In addition, where the note is “5 min”, the “Sk. Muscle tissue distribution” value came to 0.21 ± 0.05 % ID/g. Moreover, under “30 min”, the Blood tissue distribution is listed as 0.45 ± 0.1 % ID/g, the GI tissue distribution amounted to 1.96 ± 0.49 % ID/g, the Kidney tissue distribution worked out at 17.05 ± 3.17 % ID/g and the Liver tissue distribution came to 3.02 ± 0.59 % ID/g. Also, where the note is “30 min”, the “Sk. Muscle tissue distribution” value is 0.09 ± 0.02 % ID/g. Under “60 min”, the Blood tissue distribution is given as 0.22 ± 0.02 % ID/g, the GI tissue distribution is recorded as 1.64 ± 0.64 % ID/g, the Kidney tissue distribution turned out to be 9.52 ± 2.54 % ID/g and the Liver tissue distribution was 0.98 ± 0.22 % ID/g. Moreover, the “Sk. Muscle tissue distribution” value (60 min) came to 0.05 ± 0.01 % ID/g. Where the note is “120 min”, this compound came in with a Blood tissue distribution of 0.09 ± 0.01 % ID/g, a GI tissue distribution of 2.53 ± 0.7 % ID/g, a Kidney tissue distribution of 3.94 ± 0.43 % ID/g and a Liver tissue distribution of 0.44 ± 0.14 % ID/g. For the same compound, for the setting “120 min”, the “Sk. Muscle tissue distribution” value worked out at 0.02 ± 0 % ID/g.
